Columns and labels:
Type in all cases: functional, organism-based
Human alphaherpesvirus 2 [1] = assay: Antiviral activity against HSV-2 infected in human ARPE-19 cells assessed as inhibition of viral replication incubated for 16 hrs by fluorescence based analysis; conditions: Human alphaherpesvirus 2, ARPE-19, 16 h
Human alphaherpesvirus 2 [2] = assay: Antiviral activity against HSV-2
Human alphaherpesvirus 1 [3] = assay: Antiviral activity against HSV-1
Human alphaherpesvirus 1 [4] = assay: Antiviral activity against HSV-1 by CPE assay

| SMILES | IC50 (Human alphaherpesvirus 2 [1]) | IC50 (Human alphaherpesvirus 2 [2]; Human alphaherpesvirus 2) | IC50 (Human alphaherpesvirus 1 [4]) | IC50 (Human alphaherpesvirus 2 [2]) | also measured |
| --- | --- | --- | --- | --- | --- |
| NS(=O)(=O)c1cc2c(cc1F)CCN2C(=O)[C@@H]1Cc2ccc(-c3cc(F)ccc3F)cc2C1 | 12 nM | – | – | – | – |
| Cc1nc(N(C)C(=O)Cc2ccc(-c3cc(F)ccc3F)cc2)sc1S(C)(=N)=O (stereo unspecified) | – | 28 nM | – | – | IC50 (Human alphaherpesvirus 1 [3]): 19 nM |
| NS(=O)(=O)c1cc2c(cc1F)CCN2C(=O)[C@@H]1Cc2ccc(-c3ccccn3)cc2C1 | 6 nM | – | – | – | – |
| Cc1nc(N(C)C(=O)[C@@H]2Cc3ccc(-c4ccccn4)cc3C2)sc1S(N)(=O)=O | – | – | – | – | IC50 (Human alphaherpesvirus 1 [4]; Human alphaherpesvirus 1): 7 nM |
| Cc1nc(N(C)C(=O)C2Cc3ccc(-c4cc(F)ccc4F)cc3C2)sc1S(C)(=N)=O (stereo in doubt; 2c) | – | – | 400 nM | 2000 nM | – |
| CS(=N)(=O)c1cc2c(cc1F)CCN2C(=O)[C@@H]1Cc2ccc(-c3cc(F)ccc3F)cc2C1 (stereo partly specified) | 48 nM | – | – | – | – |
| Cc1nc(N(C)C(=O)C2Cc3ccc(-c4cc(F)ccc4F)cc3C2)sc1S(C)(=N)=O (stereo in doubt; 2b) | – | – | 300 nM | 1250 nM | – |
| CS(=N)(=O)c1cc2c(cc1F)CCN2C(=O)[C@@H]1Cc2ccc(-c3ccccn3)cc2C1 (stereo partly specified) | 37 nM | – | – | – | – |
| Cc1nc(N(C)C(=O)C2Cc3ccc(-c4cc(F)ccc4F)cc3C2)sc1S(C)(=N)=O (stereo in doubt; 2a) | – | – | 25000 nM | 25000 nM | – |
| Cc1nc(N(C)C(=O)C2Cc3ccc(-c4cc(F)ccc4F)cc3C2)sc1S(C)(=N)=O (stereo in doubt; 2d) | – | – | 8000 nM | 50000 nM | – |

More lines, main results first:

| IC50 (Human alphaherpesvirus 2 [1]) | IC50 (Human alphaherpesvirus 2 [2]; Human alphaherpesvirus 2) | IC50 (Human alphaherpesvirus 1 [4]) | IC50 (Human alphaherpesvirus 2 [2]) | SMILES | also measured |
| --- | --- | --- | --- | --- | --- |
| – | 16 nM | – | – | Cc1nc(N(C)C(=O)[C@@H]2Cc3ccc(-c4cc(F)ccc4F)cc3C2)sc1S(N)(=O)=O | IC50 (Human alphaherpesvirus 1 [4]; Human alphaherpesvirus 1): 1 nM |
| – | 16000 nM | – | – | Cc1nc(N(C)C(=O)[C@H]2Cc3ccc(-c4cc(F)ccc4F)cc3C2)sc1S(N)(=O)=O | IC50 (Human alphaherpesvirus 1 [4]; Human alphaherpesvirus 1): 2000 nM |
| – | 20 nM | – | – | Cc1nc(N(C)C(=O)Cc2ccc(-c3ccccn3)cc2)sc1S(N)(=O)=O [PRITELIVIR] | IC50 (Human alphaherpesvirus 1 [3]): 20 nM |
